# Assay results published in article PMC9721090 (FASEB BioAdvances, 2022).
# Structures can show the parent of a compound that is named as a salt.
# Experiments:
# [1] = target: β2AR-Gαs (Homo sapiens, UniProt P07550); assay: Saturation binding of [3H] DHA, membranes of t β2AR-Gαs HEK 293 cells
# [2] = target: β2AR (Homo sapiens, UniProt P07550); format: binding
# [3] = target: T1, β2AR-βarr2 (Homo sapiens, UniProt P07550+P32121); assay: Saturation binding of [3H] DHA, membranes of t β2AR-βarr2 HEK 293 cells
# [4] = target: T1, β2AR-βarr2; assay: ERK1/2 phosphorylation; format: cell-based; conditions: t β2AR-βarr2 HEK 293; PTX 100ng/ml overnight
# Sequence of β2AR (P07550 whole entry): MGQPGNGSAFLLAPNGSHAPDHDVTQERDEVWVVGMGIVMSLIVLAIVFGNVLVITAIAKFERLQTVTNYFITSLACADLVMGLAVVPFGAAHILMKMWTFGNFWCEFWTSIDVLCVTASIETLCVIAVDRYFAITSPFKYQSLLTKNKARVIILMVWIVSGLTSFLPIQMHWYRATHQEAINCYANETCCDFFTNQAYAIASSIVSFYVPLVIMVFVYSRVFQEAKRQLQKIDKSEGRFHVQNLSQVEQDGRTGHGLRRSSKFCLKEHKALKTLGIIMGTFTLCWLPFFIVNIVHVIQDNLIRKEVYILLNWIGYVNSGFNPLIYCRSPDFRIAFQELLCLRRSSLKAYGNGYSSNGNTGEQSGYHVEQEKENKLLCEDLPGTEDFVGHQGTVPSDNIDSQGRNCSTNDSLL
Molecule,Kd [1],Kd [2],Kd [3],effect on constitutive ERK1/2 phosphorylation [4]
"CCCc1ccccc1OC[C@@H](O)CNC(C)C [[3H] dihydroalprenolol, Dihydroalprenolol hydrochloride, levo‐[ring, propyl‐^3H(N)]‐]",0.213 ± 0.049 nM,0.148 ± 0.028 nM,0.233 ± 0.022 nM,
pertussis toxin,,,,no effect
